Test results published in PMC5117956 (Drug Design, Development and Therapy, 2016).

Legend:
[1] = clinical practice; cited from earlier work
[2] = low solubility and high permeability; cited from earlier work
[3] = In vivo PK experiment: oral SQV with or without oral RESV; set-up: species or system rat; details: rats

Time of first peak in plasma levels ([3]; SQV 30 mg/kg oral, RESV (20 mg/kg) treatment group) [h]	Time of second peak in plasma levels ([3]; SQV 30 mg/kg oral, both groups (with or without RESV 20 mg/kg))	Time of first peak in plasma levels ([3]; SQV 30 mg/kg oral, control group)	Effect of coadministration on Cmax of SQV ([3]; RESV 20 mg/kg oral with SQV 30 mg/kg oral, P>0.05)	Structure (SMILES)	Coefficient of variation (CV) of oral bioavailability [1] [%]	Oral bioavailability [1]	Biopharmaceutics Classification System class [2]
~0.25	~ 4 h	~ 0.5 h		CC(C)(C)NC(=O)[C@@H]1C[C@@H]2CCCC[C@@H]2CN1C[C@@H](O)[C@H](Cc1ccccc1)NC(=O)[C@H](CC(N)=O)NC(=O)c1ccc2ccccc2n1 [SQV, saquinavir]	> 100	~ 4%	class II
			not significantly affected	Oc1ccc(/C=C/c2cc(O)cc(O)c2)cc1 [RESV, resveratrol]			
